Conditions: in vivo

NCc1ccc(S(N)(=O)=O)cc1 [Sulfamylon]
safety profile (adverse effects): absence of adverse effects

Source: US10632147B2, “Methods and compositions for treating inflammatory disorders” (priority 2007, dated 2020)
